Assay results from US8623429B2, “Stabilized anthocyanin compositions” (Omnica GmbH, priority 2007, dated 2014).

Key:
[1] = Example 3: stability of black currant extract anthocyanosides, 4 hours at 37° C., pH 7.0, with/without DHLA, GSH or L-cysteine (HPLC); type: physicochemical; details: for Peak Area, Fresh solution: black currant extract 60 mg/100 ml buffer pH 7.0, fresh sample; for % left, DHLA 20 mg / % left, GSH 20 mg / % left, L-cysteine 20 mg / Peak Area, DHLA 20 mg / Peak Area, GSH 20 mg / Peak Area, L-cysteine 20 mg / % left, Blank / Peak Area, Blank: pH 7.0, 37° C., 4 hours; for % left, Blank / Peak Area, Blank: unprotected
Protocol: (§1) Sample a) 60 mg black currant extract [35% anthocyanosides] (0.037 mmol anthocyanosides expressed as cyanidin-3-O-rutinoside) were added to a 100 ml flask and filled to volume with sodium phosphate buffer (5% [w/w], pH=7.0) and stirred until dissolution was complete. A 1 ml sample was taken immediately, acidified with formic acid to pH=1.0 and analyzed by HPLC for the content of anthocyanosides (Fresh Sample). The remaining solution was kept for 4 hours at 37° C. (water bath) with stirring. Thereafter samples (Blank sample), representing unprotected degradation, were taken and acidified.
Sample b) 20 mg reduced L-glutathione (0.065 mmol) were added to a 100 ml flask with 60 ml sodium phosphate buffer (5% [w/w], pH=7.0) and stirred until dissolution was complete. 60 mg black currant extract [35% anthocyanosides] (0.037 mmol anthocyanosides expressed as cyanidin-3-O-rutinoside) were then added and the flask was filled to volume with sodium phosphate buffer (5% [w/w], pH=7.0) and kept for 4 hours at 37° C. (water bath) with stirring.
Sample c) 20 mg dihydrolipoic acid (0.096 mmol) were added to a 100 ml flask with 60 ml sodium phosphate buffer (5% [w/w], pH=7.0) and stirred until dissolution was completed. 60 mg black currant extract [35% anthocyanosides] (0.037 mmol anthocyanosides expressed as cyanidin-3-O-rutinoside) were added to the flask, filled to volume with sodium phosphate buffer (5% [w/w], pH=7.0) and kept for 4 hours at 37° C. (water bath) with stirring.
Sample d) 20 mg L-cysteine acid (0.165 mmol) were added to a 100 ml flask with 60 ml sodium phosphate buffer (5% [w/w], pH=7.0) and stirred until dissolution was complete. 60 mg black currant extract [35% anthocyanosides] (0.037 mmol anthocyanosides expressed as cyanidin-3-O-rutinoside) were added to the flask, filled to volume with sodium phosphate buffer (5% [w/w], pH=7.0) and kept for 4 hours at 37° C. (water bath) with stirring.
After 4 hours samples were taken, acidified immediately with formic acid to pH=1.0 and analyzed by HPLC for the content of anthocyanosides. Degradation is expressed as decrease in peak area of individual peaks (calculated as % left after 4 hours).
(§2) Samples were prepared as outlined below in HPLC Analytical Method. Test stability samples were immediately acidified (to block degradation) and injected undiluted following the detailed description provided below.
HPLC Analytical Method (Materials, Instruments and Methods): […]

[2] = Example 5: degradation over time of black currant anthocyanosides at 37° C., pH 7.0, with/without GSH (HPLC); type: physicochemical; details: pH 7.0, 37° C.; for %-residual anthocyanosides (% left): 4 hours
Protocol: as §1, with “flask,” for “flask and”, “anthocyanosides.” for “anthocyanosides (Fresh Sample).”, “kept” for “kept for 4 hours”, “stirring and 1 ml” for “stirring. Thereafter”, “Samples),” for “sample),”, “every 15 minutes. The samples were analyzed for selected anthocyanosides by HPLC.” for “and acidified.”
Sample b) 20 mg reduced L-glutathione (0.065 mmol) were added to a 100 ml flask with 60 ml sodium phosphate buffer (5% [w/w], pH=7.0) and stirred until dissolution was complete. 60 mg black currant extract [35% anthocyanosides] (0.037 mmol anthocyanosides expressed as cyanidin-3-O-rutinoside) were added, the flask was filled to volume with sodium phosphate buffer (5% [w/w], pH=7.0) and kept for at 37° C. (water bath) with stirring. Every 15 minutes 1 ml samples were taken and analyzed for selected anthocyanosides by HPLC.
as §2

[3] = GSH protected sample (20 mg), 0:00 h
[4] = GSH protected sample (20 mg), 0:15 h
[5] = GSH protected sample (20 mg), 0:45 h
[6] = GSH protected sample (20 mg), 1:00 h
[7] = GSH protected sample (20 mg), 1:15 h
[8] = GSH protected sample (20 mg), 1:45 h
[9] = GSH protected sample (20 mg), 2:00 h
[10] = GSH protected sample (20 mg), 2:15 h
[11] = GSH protected sample (20 mg), 2:45 h
[12] = GSH protected sample (20 mg), 3:00 h
[13] = GSH protected sample (20 mg), 3:15 h
[14] = GSH protected sample (20 mg), 3:45 h
[15] = GSH protected sample (20 mg), 4:00 h
[16] = GSH protected sample (20 mg), 4:15 h

C[C@@H]1O[C@@H](OC[C@H]2O[C@@H](Oc3cc4c(O)cc(O)cc4[o+]c3-c3ccc(O)c(O)c3)[C@H](O)[C@@H](O)[C@@H]2O)[C@H](O)[C@H](O)[C@H]1O [Cn-3-O-Rut, Cyanidin-3-O-rutinoside]
Peak Area, Fresh solution [1]: 3539 | % left, DHLA 20 mg [1]: 51.1% | % left, GSH 20 mg [1]: 65.0% | % left, L-cysteine 20 mg [1]: 38.9% | Peak Area, DHLA 20 mg [1]: 1809 | Peak Area, GSH 20 mg [1]: 2299 | Peak Area, L-cysteine 20 mg [1]: 1377 | % left, Blank [1]: 33.4% | Peak Area, Blank [1]: 1183 | Peak Area ([2]; Blank sample, 0:00 h): 3539.1 | Peak Area ([2]; Blank sample, 0:15 h): 2707.4 | Peak Area ([2]; Blank sample, 0:30 h): 2620.7 | Peak Area ([2]; Blank sample, 0:45 h): 2342.2 | Peak Area ([2]; Blank sample, 1:00 h): 2278.1 | Peak Area ([2]; Blank sample, 1:30 h): 2130.7 | Peak Area ([2]; Blank sample, 1:45 h): 2104.9 | Peak Area ([2]; Blank sample, 2:00 h): 1894.9 | Peak Area ([2]; Blank sample, 2:15 h): 1851.7 | Peak Area ([2]; Blank sample, 2:30 h): 1790.9 | Peak Area ([2]; Blank sample, 2:45 h): 1694.9 | Peak Area ([2]; Blank sample, 3:00 h): 1573.5 | Peak Area ([2]; Blank sample, 3:15 h): 1531.6 | Peak Area ([2]; Blank sample, 3:30 h): 1370.4 | Peak Area ([2]; Blank sample, 3:45 h): 1361.3 | Peak Area ([2]; Blank sample, 4:00 h): 1182.9 | %-residual anthocyanosides (% left) ([2]; Blank): 33% | Peak Area [2, 3]: 3473.6 | Peak Area [2, 4]: 3108.1 | Peak Area [2, 5]: 2964.3 | Peak Area [2, 6]: 3015.3 | Peak Area [2, 7]: 2958.5 | Peak Area [2, 8]: 2688.8 | Peak Area [2, 9]: 2777.8 | Peak Area [2, 10]: 2579.6 | Peak Area [2, 11]: 2447.1 | Peak Area [2, 12]: 2534.7 | Peak Area [2, 13]: 2366.8 | Peak Area [2, 14]: 2274.2 | Peak Area [2, 15]: 2298.9 | Peak Area [2, 16]: 2199.7 | %-residual anthocyanosides (% left) ([2]; GSH-protected): 66%

C[C@@H]1O[C@@H](OC[C@H]2O[C@@H](Oc3cc4c(O)cc(O)cc4[o+]c3-c3cc(O)c(O)c(O)c3)[C@H](O)[C@@H](O)[C@@H]2O)[C@H](O)[C@H](O)[C@H]1O [Dp-3-O-Rut, Delphinidin-3-O-rutinoside]
Peak Area, Fresh solution [1]: 5207 | % left, DHLA 20 mg [1]: 51.7% | % left, GSH 20 mg [1]: 53.1% | % left, L-cysteine 20 mg [1]: 38.0% | Peak Area, DHLA 20 mg [1]: 2692 | Peak Area, GSH 20 mg [1]: 2764 | Peak Area, L-cysteine 20 mg [1]: 1975 | % left, Blank [1]: 12.0% | Peak Area, Blank [1]: 626.2 | Peak Area ([2]; Blank sample, 0:00 h): 5207.5 | Peak Area ([2]; Blank sample, 0:15 h): 3604.2 | Peak Area ([2]; Blank sample, 0:30 h): 3366.5 | Peak Area ([2]; Blank sample, 0:45 h): 2787.9 | Peak Area ([2]; Blank sample, 1:00 h): 2660.6 | Peak Area ([2]; Blank sample, 1:30 h): 2299.5 | Peak Area ([2]; Blank sample, 1:45 h): 2291.6 | Peak Area ([2]; Blank sample, 2:00 h): 1825.7 | Peak Area ([2]; Blank sample, 2:15 h): 1747.2 | Peak Area ([2]; Blank sample, 2:30 h): 1552.5 | Peak Area ([2]; Blank sample, 2:45 h): 1442.9 | Peak Area ([2]; Blank sample, 3:00 h): 1235.4 | Peak Area ([2]; Blank sample, 3:15 h): 1166.0 | Peak Area ([2]; Blank sample, 3:30 h): 907.2 | Peak Area ([2]; Blank sample, 3:45 h): 891.1 | Peak Area ([2]; Blank sample, 4:00 h): 626.2 | %-residual anthocyanosides (% left) ([2]; Blank): 12% | Peak Area [2, 3]: 5201.3 | Peak Area [2, 4]: 4584.2 | Peak Area [2, 5]: 4275.7 | Peak Area [2, 6]: 4273.1 | Peak Area [2, 7]: 4168.7 | Peak Area [2, 8]: 3749.9 | Peak Area [2, 9]: 3813.3 | Peak Area [2, 10]: 3544.9 | Peak Area [2, 11]: 3199.5 | Peak Area [2, 12]: 3327.2 | Peak Area [2, 13]: 2993.9 | Peak Area [2, 14]: 2761.0 | Peak Area [2, 15]: 2763.6 | Peak Area [2, 16]: 2579.8 | %-residual anthocyanosides (% left) ([2]; GSH-protected): 53%
